Source: publication PMC11305387, “AlphaFold accelerated discovery of psychotropic agonists targeting the trace amine–associated receptor 1” (Science Advances, 2024)

Tests used:
H1 receptor = target: T1, H1 receptor (Homo sapiens, UniProt P35367); assay: PRESTO-TANGO β-arrestin recruitment; type: cell-based; conditions: concentration-response curves (fig. S10)
T1 construct: TANGO fusion module (own knowledge, Kroeze et al.: C-terminal V2 tail, TEV site and tTA); 1000000068; host or cells: HTLA (HEK293-derived)
T1 sequence (P35367 whole entry, the tested form may be a part): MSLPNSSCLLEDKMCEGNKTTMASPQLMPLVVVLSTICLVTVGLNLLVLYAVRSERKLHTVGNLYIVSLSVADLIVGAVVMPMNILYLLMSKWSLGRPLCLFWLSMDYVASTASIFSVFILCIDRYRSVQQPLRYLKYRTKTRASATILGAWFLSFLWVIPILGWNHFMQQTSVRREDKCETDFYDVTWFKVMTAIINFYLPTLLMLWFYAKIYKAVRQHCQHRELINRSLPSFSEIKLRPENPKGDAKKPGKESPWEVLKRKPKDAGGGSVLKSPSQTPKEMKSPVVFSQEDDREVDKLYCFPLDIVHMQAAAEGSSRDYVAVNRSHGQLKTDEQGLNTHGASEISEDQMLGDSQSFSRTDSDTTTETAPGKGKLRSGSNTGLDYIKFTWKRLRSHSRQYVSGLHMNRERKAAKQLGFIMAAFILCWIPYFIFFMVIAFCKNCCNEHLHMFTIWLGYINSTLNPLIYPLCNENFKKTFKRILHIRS
Protocol: Assessment of receptor activation by compounds at all human aminergic receptors were carried out using a modified version of the PRESTO-TANGO method. […] The plate was spun down, and 5 μl of a 1:25 dilution (in DPBS) of polyethylenimine (PEI) derivative (Transporter 5, Polysciences) was added (1:4 cDNA to PEI ratio) and incubated for 20 min at room temperature (RT). […] Luminescence signal was detected using a plate-reader (SPARK, Tecan) with 100-ms integration time and a 100-ms delay between well reads.

[1] = Plasma protein binding (rapid equilibrium dialysis); type: in vitro ADME; conditions: pH 7.4
Protocol: Pooled human plasma was provided by Uppsala Academic Hospital and was collected from two donors (nonsmoking) (citric acid). In brief, 0.2 ml of the plasma (50% plasma and 50% isotonic buffer) test solution (typically, 10 μM final compound concentration) was transferred to the membrane tube in the rapid equilibrium dialysis (RED) insert (Thermo Fisher Scientific). Isotonic phosphate buffer (0.35 ml; pH 7.4) was added to the other side of the membrane. The 96-well base plate was then sealed with an adhesive plastic film (Scotch Pad) to prevent evaporation. The sample was incubated with rapid rotation (>900 rpm) on a Kisker rotational incubator at 37°C for 4 hours to achieve equilibrium. A stability test of the test solution was prepared (to allow detection of drug degradation), and 100 μl of the plasma test solution (in a plastic vial or on a sealed plate) was incubated at 37°C for 4 hours (or as long as the dialysis time). The plasma test solution was frozen directly after the administration to prevent any degradation. Before LC-MS/MS analysis, the plasma and buffer samples were treated with the addition of methanol (1:3) containing Warfarin as internal standard to precipitate proteins. The standard curve was created using the plasma standard. The plate was then sealed and centrifuged, and the supernatant was analyzed by LC-MS/MS ([78]).

[2] = Caco-2 cells permeability assay; type: in vitro ADME; conditions: human
Protocol: Caco-2 cell monolayers (passages: 94 to 105) were grown on permeable filter support and used for transport study on day 21 after seeding. Before the experiment, a drug solution of 10 μM was prepared and warmed to 37°C. The Caco-2 filters were washed with pre-warmed HBSS before the experiment, and, thereafter, the experiment was started by applying the donor solution on the apical or basolateral side. The transport experiments were carried out at pH 7.4 in both the apical and basolateral chamber. The experiments were performed at 37°C and with a stirring rate of 500 rpm. The receiver compartment was sampled at 15, 30, and 60 min, and, at 60 min, also a final sample from the donor chamber was taken to calculate the mass balance of the compound. The samples (100 μl) were transferred to a 96-well plate containing 100 μl of methanol, and Warfarin as internal standard and was sealed until LC-MS/MS analysis.

WT and TAAR1-KO mice [3] = assay: Pre-pulse inhibition (PPI) behavioral assay; type: in vivo; conditions: compound 65 1 mg/kg, risperidone 0.2 mg/kg i.p.
Protocol: Measurements were performed using startle response chambers (San Diego Instruments, San Diego, CA, USA). Each chamber is sound-isolated and contains a Plexiglass animal enclosure attached to a platform and a loudspeaker that can produce both continuous white noise and acoustic pulses of varying intensities. The animal enclosure is large enough for the animal to turn around and make other movements to reduce restraint stress. Mouse startle responses to acoustic stimuli are transformed by a piezoelectric transducer under the platform into an analog signal. The transducers were calibrated before each experiment using a standardization unit (San Diego Instruments, San Diego, CA, USA), and the speakers were calibrated using a Type 2670 Microphone Preamplifier, a Type 4230 Sound Level Calibrator, and a Type 2610 Measuring Amplifier (Brüel & Kjær, Nærum, Denmark). To habituate the mice to the chambers, they were placed in the enclosure for 5 min, with 65-dB background white noise, on three different days before the start of experiments. PPI measurements were then conducted on each mouse on four occasions separated by 96 hours. The first occasion was a mock test session where all mice were injected with vehicle, serving to reduce the effect of novelty on subsequent sessions. The next three sessions were true test sessions with injection of either compound 65, risperidone, or vehicle. The R package agricolae was used to generate a randomized block design, randomizing treatment order across sex, genotype, and test session.
Animals were brought to the testing room for habituation 60 min before the starting of tests. Thirty minutes before PPI measurements, mice were injected with either compound 65 (1 mg/kg), risperidone (0.2 mg/kg), or vehicle intraperitoneally. Each test session started with a 5-min background noise (65-dB white noise) habituation period. The background noise continued throughout the test session. The habituation period was followed by four blocks of trials, with the first and last blocks consisting of five pulse-only trials (40-ms, 120-dB pulse). During block 2, five trial types were presented five times each in a pseudo-randomized order. The trial types included pulse only, no stimulus (NOSTIM), and three different pre-pulse trials in which 20 ms pre-pulses of different intensities (68, 71, or 77 dB) preceded the startle pulse (120 dB) by a 100-ms interval. Block 3 contained the same numbers and types of trials as block 2, but in a different pseudorandom order. […] PPI data are shown as PPI%, which was calculated as [1 − (pre-pulse trials/startle-only trials)] × 100. Mean PPI was calculated by adding the average PPI% for all pre-pulse intensities (3, 6, and 12 dB) and dividing it by the number (i.e., 3) of pre-pulse intensities.

WT and TAAR1-KO mice [4] = assay: Open-field test: baseline locomotion and MK-801-induced hyperlocomotion; type: in vivo; conditions: compound 65 1 mg/kg, risperidone 0.03 mg/kg
Protocol: To assess the influence of the compound on baseline locomotion and MK-801–induced hyperlocomotion, mice were subjected to open-field testing on four occasions separated by 96 hours. The first occasion was a mock test session where all mice were injected with vehicle only, serving to reduce the effect of novelty on subsequent sessions. The next three sessions were true test sessions with pretreatment of either compound 65, risperidone, or vehicle, followed by MK-801. The R package agricolae was used to generate a randomized block design, randomizing treatment order across sex, genotype, and test session. After injection with either compound 65 (1 mg/kg), risperidone (0.03 mg/kg), or vehicle intraperitoneally, mice were immediately placed in the open field and recorded for 15 min. They were then injected with MK-801 (0.35 mg/kg intraperitoneal) and recorded again for 60 min. The OFT arena measured 46 cm by 46 cm with gray floor and walls. The brightness at the center of each arena was 30 to 50 lux. The arenas were cleaned with 70% ethanol between each animal. Video from a camera mounted in the ceiling was analyzed using EthoVision XT11.5 (Noldus) software.

[5] = Metabolic stability in liver microsomes; conditions: mouse liver microsomes, 1 μM

**Q.** What does the source list for `CC1=C(c2ccco2)CNCC1` [Compound 65]?
**A.** agonism at the H1 receptor (H1 receptor): lacked agonism; fraction unbound at 4 h, 10 μM ([1]; human, pooled human plasma (50% plasma and 50% isotonic buffer)): 0.61; fraction unbound at 4 h, 10 μM ([1]; mouse, mouse plasma (50% plasma and 50% isotonic buffer)): 0.81; efflux ratio at 60 min, 10 μM [2]: 2.2; Papp A→B at 60 min, 10 μM ([2]; apical-to-basal, 10 μM, pH 7.4): 77 ×10⁻⁶ cm/s; Papp B→A at 60 min, 10 μM ([2]; basal-to-apical, 10 μM, pH 7.4): 168 ×10⁻⁶ cm/s; effect on PPI (WT and TAAR1-KO mice [3]; TAAR1-KO mice): did not observe any change in PPI; effect on PPI (WT and TAAR1-KO mice [3]; WT mice): elevated PPI at both 3- and 6-dB pre-pulse levels; effect on locomotion (WT and TAAR1-KO mice [4]; TAAR1-KO mice): did not exhibit such an effect; effect on MK-801–induced hyperlocomotion (WT and TAAR1-KO mice [4]; WT mice, MK-801 0.35 mg/kg): significant decrease; effect on baseline locomotion (WT and TAAR1-KO mice [4]; WT mice, versus vehicle): trend toward decreased locomotion; intrinsic clearance CLint [5]: 7 μl/min per mg
